The text below walks through data of US20090062255A1, “TUMOR-TARGETING EVALUATION METHODOLOGY AND COMPOUNDS RELATED THERETO” (THALLION PHARMACEUTICALS INC., priority 2007, published 2009).

Series [1] relates to C6 glioblastoma cell line. Kind of series: MTT cytotoxicity, C6 cell line. The settings on record: 96 h, Rat. The class given is cell-based. As for the experimental part:
The cytotoxic activity of Compound 1 was further evaluated using a panel of brain tumor cell lines. This study was performed in collaboration with INSERM (Grenoble, France). Tumor cells (5,000 to 10,000 cells per well depending on their doubling time) were plated in 96-well flat-bottom plates and incubated for 24 hours before treatment. Tumor cells were then incubated for 96 hours with seven different concentrations of Compound 1: […], 0.01, and 0.001 μM. The in vitro cytotoxic activity was determined by a standard MTT assay.

The subject of series [2] is prenylation of Ras, RAP1A and HDJ2 (FTase, GGTase I). As to the kind of experiment: Protein prenylation immunoblot (FTase and GGTase I activities) in MCF-7 cells. Format: cell-based, human. The settings on record: MCF7 cells, 3, 10 and 30 μM, 24 h; listed as ECO-4601. Here is the method:
It was first verified if ECO-4601 interferes with Ras processing by monitoring FTase and GGTase I activities by immunoblot analysis. For these experiments, exponentially growing MCF-7 (human breast tumor) cells were seeded in 60 mm cell culture dishes at a density of 2.5×10^6 cells per dish. After an 18 h incubation period, ECO-4601 or lovastatin (Sigma-Aldrich, St. Louis, Mo.) were added at a final concentration of 3, 10 and 30 μM for 24 h. Cells were also treated with the vehicle alone (0.05% DMSO) for the same incubation periods. Treated and control cells were lysed in ice-cold RIPA buffer (50 mM Tris-HCl pH 7.4, 1% Triton X-100, 1% deoxycholate, 0.1% SDS, 150 mM NaCl, and 1 mM EDTA) containing protease inhibitors (Roche, Mannheim, Germany) and phosphatase inhibitors (EMD Biosciences, Calbiochem, San Diego, Calif.) for 20 minutes on ice. After lysis, cell debris was removed by centrifugation at 12000×g for 10 min. […] Bound antibodies were detected using horseradish peroxidase-conjugated secondary antibodies (Jackson ImmunoResearch Laboratories Inc., West Grove, Pa.) for 1 h at room temperature in 0.5% skim milk-TBS, visualized by treating the membranes with enhanced chemiluminescence reagents (Millipore, Mississauga, ON, Canada) and exposing them to BioMax Light Films (Kodak, Mississauga, ON, Canada). […]
In general terms: A western blot detects proteins with antibodies after separation by electrophoresis.

The target in a further series is T1, human EGFR (Homo sapiens, UniProt P00533).
T1 construct: purchased Upstate (Kinase Profiler Service; Dundee, UK)
As to the kind of experiment: Upstate Kinase Profiler, EGFR. The class given is biochemical. As for the experimental part: Unlike current Ras signalling pathway inhibitors, ECO-4601 is not a direct kinase inhibitor. This was documented by evaluating the effect of ECO-4601 on human EGFR, c-RAF, MEK1, MAPK1 (ERK1) and MAPK2 (ERK2) kinase-activity (Upstate Kinase Profiler™ Service; Dundee, UK). ECO-4601 was tested at 0.5 μM and 5 μM in a final volume of 25 μL according to standard protocols developed by Upstate Ltd. Briefly, purified recombinant human enzymes were incubated with 25 mM Tris pH 7.5 containing EGTA, a specific substrate and γ-^32P-ATP. The reaction was initiated with MgATP mix and incubated for 40 minutes at RT. The reaction was stopped by the addition of 5 μL of a 3% phosphoric acid solution; aliquots were spotted on filters and counted. Detailed procedures are available on the Millipore Upstate website.

Series [3] relates to ERK phosphorylation, human pancreatic MiaPaCa-2 cell line (mutated K-Ras). As to the kind of experiment: EGF-stimulated ERK phosphorylation in MiaPaCa-2 cells. The class given is cell-based. From the text:
To evaluate whether ECO-4601 interferes with K-Ras signalling, the human pancreatic MiaPaCa-2 cell line, a tumor cell line known to express mutated K-Ras, was employed.

Series [4] has as its system human breast cell line MCF-7. As to the kind of experiment: Growth inhibitory MTT assay, MCF-7. The class given is cell-based. The settings on record: 72 hours, treated over control. Here is the method:
Growth inhibitory activity of ECO-4601 (Compound 1) and other dibenzodiazepinone analogs was evaluated on a panel of 4 human tumor cell lines: the human uterine sarcoma MES-SA and its doxorubicin-resistant P-glycoprotein over-expressing variant, MES-SA/DX5 as well as non-aggressive and highly aggressive human breast cell lines, MCF-7 and MDA-MB-231, respectively. These four cell lines were obtained from the American Type Culture Collection (Manassas, Va.) and cultured in RPMI plus 10% fetal bovine serum (FBS) and maintained at 37° C. with 5% CO2.
Exponentially growing cells (5,000 cells per well time; cell number determined with a hemocytometer) were seeded in 96-well flat-bottom plates and allowed to grow overnight. Cells were then incubated for 72 hours with three different concentrations of ECO-4601 or analogs: 30,10, and 3 μM. The in vitro growth inhibitory activity was determined by a commercial MTT assay. All measurements were done in quadruplicate and each experiment was performed 2-3 times. The lower the value, the more cytotoxic is the compound.
(In general: Tetrazolium assays rely on reduction of a dye to a coloured formazan, in cell work by metabolically active cells.)

A short description of the next series: in vivo. The settings on record: CD-1 nu/nu, mouse, iv.

For orientation: IC50 means the concentration that gives 50% inhibition. Higher therefore signals weaker potency in that assay.

SMILES strings stand for the structures. Entries after “also recorded” stand apart in the source; their conditions may differ. Some results are limits rather than exact numbers.

T1 sequence (P00533 25-1210): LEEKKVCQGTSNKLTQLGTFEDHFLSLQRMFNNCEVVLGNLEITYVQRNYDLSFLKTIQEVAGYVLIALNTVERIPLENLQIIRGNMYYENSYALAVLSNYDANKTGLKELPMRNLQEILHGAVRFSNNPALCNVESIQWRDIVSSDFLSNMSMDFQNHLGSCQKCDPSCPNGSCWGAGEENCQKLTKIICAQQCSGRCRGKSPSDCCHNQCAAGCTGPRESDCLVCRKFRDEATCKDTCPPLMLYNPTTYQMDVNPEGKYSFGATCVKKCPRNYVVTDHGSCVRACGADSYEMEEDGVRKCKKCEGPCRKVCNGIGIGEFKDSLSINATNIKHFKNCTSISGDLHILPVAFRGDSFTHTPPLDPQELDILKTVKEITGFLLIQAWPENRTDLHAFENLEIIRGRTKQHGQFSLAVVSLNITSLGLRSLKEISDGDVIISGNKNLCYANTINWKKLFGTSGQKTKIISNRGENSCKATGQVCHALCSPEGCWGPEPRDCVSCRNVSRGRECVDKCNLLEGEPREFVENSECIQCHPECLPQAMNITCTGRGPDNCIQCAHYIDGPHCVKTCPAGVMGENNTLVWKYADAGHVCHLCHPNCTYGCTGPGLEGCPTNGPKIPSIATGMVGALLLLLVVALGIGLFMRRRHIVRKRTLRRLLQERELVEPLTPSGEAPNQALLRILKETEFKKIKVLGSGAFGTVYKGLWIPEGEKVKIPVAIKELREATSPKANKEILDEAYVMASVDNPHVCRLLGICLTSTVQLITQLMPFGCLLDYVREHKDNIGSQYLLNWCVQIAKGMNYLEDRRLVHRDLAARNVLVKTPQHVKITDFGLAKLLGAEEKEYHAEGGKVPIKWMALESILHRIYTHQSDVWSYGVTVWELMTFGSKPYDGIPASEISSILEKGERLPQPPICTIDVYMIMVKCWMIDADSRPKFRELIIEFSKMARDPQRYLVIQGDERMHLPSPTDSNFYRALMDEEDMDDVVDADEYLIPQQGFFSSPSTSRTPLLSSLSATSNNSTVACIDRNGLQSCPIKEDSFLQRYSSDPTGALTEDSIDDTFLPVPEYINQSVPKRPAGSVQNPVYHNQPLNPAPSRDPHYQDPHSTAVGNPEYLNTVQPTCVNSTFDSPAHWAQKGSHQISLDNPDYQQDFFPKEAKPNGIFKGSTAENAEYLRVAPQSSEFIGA

In the case of `CC(C)=CCC/C(C)=C/CC/C(C)=C/CN1C(=O)c2cccc(O)c2Nc2c(O)cc(O)cc21` [Compound 1, 10-farnesyl-4,6,8-trihydroxy-5,10-dihydrodibenzo[b,e][1,4]diazepin-11-one], the half-inhibitory concentration (IC50) in series [1] worked out at 4.3 ± 2.3 µM. Also, the “effect on protein prenylation (mobility shift of Ras, RAP1A and HDJ2)” value in series [2] was “does not inhibit protein prenylation; also recorded: no effect”. Further, the “direct inhibition of EGFR kinase activity (in words)” value on human EGFR (0.5 μM and 5 μM) was “does not directly inhibit”. On human EGFR (EGFR, 0.5 μM, % of enzyme activity over positive control, read-out: Kinase Activity (%) ± SD), the activity at 0.5 µM is 128 ± 6%. Moreover, on human EGFR (EGFR, 5 μM, % of enzyme activity over positive control, read-out: Kinase Activity (%) ± SD), the activity at 5 µM was 127 ± 9%. In series [3], the “inhibition of EGF-stimulated ERK phosphorylation” value was “dose and time dependent inhibition”. For the same compound, the “% T/C at 10 μM” value in series [4] is 44%.

As to `CC(C)=CCC/C(C)=C/CC/C(C)=C/CN1C(=O)c2cccc(O)c2N(C)c2c(O)cc(O)cc21` [Compound 2, 10-farnesyl-4,6,8-trihydroxy-5-methyl-5,10-dihydro-dibenzo[b,e][1,4]diazepin-11-one], the MTD in the series “in vivo” was > 100 mg/kg.
